Reference: patent US20150119344A1, “COMPOSITIONS AND METHODS FOR THE TREATMENT OF CARDIOVASCULAR AND NEUROLOGICAL DISEASES” (priority 2012, published 2015)

Test: Water solubility: distilled water added to a weighed amount until a clear solution was obtained
Assay type: physicochemical
Conditions: for solubility: thermodynamic from solid, distilled water, weight in mg divided by volume of the clear solution in mL
Method: Measurement of the water solubility of the test compounds is accomplished by using methods well known to those skilled in the art. Specifically, to a weighed amount of the test compound of the example compound Formula I (Ib) distilled water was added in small proportions until a clear solution was obtained. The total volume of the solution is measured. The water solubility is calculated by dividing the weight of the salt, in milligrams (mg), by the volume of the solution, in mL. […] The compound of Formula I (Ib) is therefore, at least 368 times more soluble in water than EPA itself. This is a clear indication of an unexpectedly high degree of bioavailability of the compositions of the invention. Highly water soluble medicinal preparations, when administered orally, result in efficient absorption from the gastrointestinal tract in to systemic circulation. Furthermore, water soluble preparations are especially suitable for parenteral administration.

solubility [mg/mL] | times more soluble in water than EPA (ratio of water solubility versus EPA) | SMILES
< 0.2 | – | CC/C=C\C/C=C\C/C=C\C/C=C\C/C=C\CCCC(=O)O [EPA, Eicosapentaenoic Acid, reference compound]
68.6 | at least 368 times | CC/C=C\C/C=C\C/C=C\C/C=C\C/C=C\CCCC(=O)OCC1OC(O)(CO)C(O)C1O (stereo not drawn) [Formula I (Ib)]
